Results as given in patent US6156724A, “Uses of didemnins as immunomodulating agents” (priority 1998, dated 2000).
pIC50: −log10 of the molar value.

Key:
[1] = test system: concanavalin A-induced lymphoblasts (Con A splenocytes); experiment: Lymphoblast viability (LbV) assay; details: Con A-stimulated splenocytes (lymphoblasts), MTT
[2] = test system: CB6F1 mice grafted with Balb/c splenocytes; experiment: Graft vs host reaction (GVHR) splenomegaly assay; type: in vivo; details: for alive day 8 / body weight change day 5 / body weight day 5 (g ± SD) / index (spleen wt. treated/spleen wt. syngenetic injection) / mean group spleen wt. normalized to day 8 body weight: QD 1-7, ip
Method: Three representative compounds didemnin M (38), O-pGlu-DB (37), and didemnin B (1)-showing high (37,38) or moderate (1) in vivo immunosuppressive activity were subsequently evaluated in a multidose assay (0.16,0.016, and 0.0016 mg/kg per injection; qd 1-7) for their in vivo immunosuppressive effects on the GVHR splenomegaly assay.
Three didemnins (didemnin B, didemnin M, and pGlu-didemnin B) were evaluated in a modified Simonsen splenomegaly assay. Briefly, an F1 hybrid host animal is grated with immunocompetent spleen cells from the parent strain. The index used to measure the success of the GVHR is splenomegaly (increased spleen weight due to cellular proliferation of grafted lymphocytes). An index>1.3 (graft index) is considered to be a successful graft rejection of the recipient animal. Immunosuppression is considered as a reduction of the graft index.
On day O, CB6F1 female mice, 4 weeks of age, were grated by intraperitoneal (ip) injection of 50×10^5 splenocytes from BALB/c female mice in high-glucose ([…]) Dulbecco's modified Eagles medium. A syngeneic control group (CB6F1 --CB6F1) was similarly prepared and served as the negative control. Grafted mice were divided into treatment groups containing six mice each. Groups were injected ip with test compound (dissolved in vehicle; 1% abs. EtOH in sterile phosphate-buffered saline) at one of three dose levels (0.16, 0.016, and 0.0016 mg/kg per injection) in a multidose assay, cyclophosphamide (200 mg/kg per injection) or vehicle on days 1-7 (qd 1-7). On day 8 all groups were sacrificed, spleens were excised, and a graft index was calculated for each group by the following formula: [formula]

[3] = test system: murine splenocytes (Balb/c and C57B1/6); experiment: Two-way mixed lymphocyte reaction (MLR) assay; details: Balb/c + C57B1/6 splenocytes, 96 h, [3H]thymidine;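 further: proliferation read as tritiated thymidine incorporation into newly made DNA after an overnight pulse, expressed as percent of control activity, IC50 interpolated per compound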
[4] = test system: Balb/c splenocytes (resting lymphocytes); experiment: Lymphocyte viability (LcV) assay; type: cell-based, murine; details: unstimulated Balb/c splenocytes, MTT
Summary of the method: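 Resting Balb/c splenocytes incubated with compounds under MLR-equivalent conditions, then pulsed overnight with MTT; formazan dissolved in isopropanol and absorbance read at 570 nm. Viability expressed as percent of untreated Balb/c control metabolic activity, with LC50 interpolated.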

Rift Valley fever virus = details: mouse, in vivo; cited from earlier work

CC[C@H](C)[C@H]1NC(=O)[C@@H](NC(=O)[C@@H](CC(C)C)N(C)C(=O)[C@@H]2CCCN2C(=O)C(C)O)[C@@H](C)OC(=O)[C@H](Cc2ccc(OC)cc2)N(C)C(=O)[C@@H]2CCCN2C(=O)[C@H](CC(C)C)NC(=O)[C@@H](C)C(=O)[C@H](C(C)C)OC(=O)C[C@@H]1O (stereo partly shown) [Compound 1, didemnin B]
cytotoxicity to lymphocytes LbV, LC50 [1]: 0.6 nM
suppression of allogeneically induced splenomegaly response compared to control ([2]; 1.6 μg/kg per injection): not effective
alive day 8 ([2]; 0.0016 mg/Kg/day): 100%
body weight change day 5 ([2]; 0.0016 mg/Kg/day): 1.0 g
body weight day 5 (g ± SD) ([2]; 0.0016 mg/Kg/day): 18.4 ± 0.8 g
index (spleen wt. treated/spleen wt. syngenetic injection) ([2]; 0.0016 mg/Kg/day): 1.91
mean group spleen wt. normalized to day 8 body weight ([2]; 0.0016 mg/Kg/day): 6.1
alive day 8 ([2]; 0.016 mg/Kg/day): 100%
body weight change day 5 ([2]; 0.016 mg/Kg/day): 1.0 g
body weight day 5 (g ± SD) ([2]; 0.016 mg/Kg/day): 18.2 ± 0.7 g
index (spleen wt. treated/spleen wt. syngenetic injection) ([2]; 0.016 mg/Kg/day): 1.33
mean group spleen wt. normalized to day 8 body weight ([2]; 0.016 mg/Kg/day): 4.2
suppression of allogeneically induced splenomegaly response compared to control ([2]; 16 μg/kg per injection): 53%
suppression of allogeneically induced splenomegaly response compared to control ([2]; 160 μg/kg per injection): 66%
toxicity to the animals ([2]; 160 μg/kg per injection (highest dose)): neither was toxic
alive day 8 ([2]; 0.16 mg/Kg/day): 100%
body weight change day 5 ([2]; 0.16 mg/Kg/day): -1.4 g
body weight day 5 (g ± SD) ([2]; 0.16 mg/Kg/day): 15.6 ± 1.6 g
index (spleen wt. treated/spleen wt. syngenetic injection) ([2]; 0.16 mg/Kg/day): 1.24
mean group spleen wt. normalized to day 8 body weight ([2]; 0.16 mg/Kg/day): 4.0
two-way mixed lymphocyte reaction (MLR) suppression MLR, IC50 [3]: 0.00046 µg/mL
pIC50 ([3]; read-out: two-way mixed lymphocyte reaction (MLR) suppression MLR, IC50): 9.38
cytoxicity to lymphocytes LcV, LC50 [4]: 6340 nM
cytoxicity to lymphocytes LcV, LC50 ([4]; highest concentration 10 μg/mL): 7.00 µg/mL
protected Rift Valley fever virus-infected mice (Rift Valley fever virus): 90%
